Measured values taken from ChEMBL document CHEMBL5625215, “Antiproliferative activity of meso-substituted BODIPY photocages: Effect of electrophiles vs singlet oxygen” (Eur J Med Chem, 2023).
The source made the active and inactive calls. No cut-off for these calls is given here.

Assays:
MCF7 [1] = assay: Antiproliferative activity against human MCF7 cells assessed as inhibition of cell growth incubated for 72 hrs under photoirradiation with 6 cool white lamps for 15 mins at 4,28 and 52 hrs after compound addition by MTT assay; format: functional, cell-based; conditions: MCF7, light or radiation study
MCF7 [2] = assay: Antiproliferative activity against human MCF7 cells assessed as inhibition of cell growth incubated for 72 hrs under dark condition by MTT assay; format: functional, cell-based; conditions: MCF7, 72 h
HCT-116 [3] = assay: Antiproliferative activity against human HCT-116 cells assessed as inhibition of cell growth incubated for 72 hrs under photoirradiation with 6 cool white lamps for 15 mins at 4,28 and 52 hrs after compound addition by MTT assay; format: functional, cell-based; conditions: HCT-116, light or radiation study
NCI-H460 [4] = assay: Antiproliferative activity against human NCI-H460 cells assessed as inhibition of cell growth incubated for 72 hrs under dark condition by MTT assay; format: functional, cell-based; conditions: NCI-H460, 72 h
NCI-H460 [5] = assay: Antiproliferative activity against human NCI-H460 cells assessed as inhibition of cell growth incubated for 72 hrs under photoirradiation with 6 cool white lamps for 15 mins at 4,28 and 52 hrs after compound addition by MTT assay; format: functional, cell-based; conditions: NCI-H460, light or radiation study
HCT-116 [6] = assay: Antiproliferative activity against human HCT-116 cells assessed as inhibition of cell growth incubated for 72 hrs under dark condition by MTT assay; format: functional, cell-based; conditions: HCT-116, 72 h
[7] = Fluorescence property of compound in CH3CN assessed as fluorescence quantum yield by spectrofluorometric analysis; format: physicochemical
[8] = Emission property of compound in CH3CN assessed as maximal wavelength by […]; format: physicochemical
[9] = Absorption property of compound in CH3CN assessed as maximal molar absorption coefficient by UV-vis spectrophotometer; format: physicochemical
[10] = Absorption property of compound in CH3CN assessed as maximal wavelength by UV-vis spectrophotometer; format: physicochemical
[11] = Induction of singlet oxygen production in CH3CN assessed as decrease in fluorescence intensity at 450 nm under photoirradiation with visible light and measured after 45 sec by DPBF based assay relative to control; format: functional; set-up: scale not given: the % may be the effect or the level left
HCT-116 [12] = assay: Induction of ROS generation in human HCT-116 cells assessed as increase in oxidative stress at 5 uM preincubated with compound for 1 hrs followed by photoirradiation with 6 cool white lamps by DCFH-DA staining based fluorescence analysis; format: functional, cell-based
[13] = Induction of singlet oxygen production in CH3CN assessed as decrease in fluorescence intensity at 450 nm under photoirradiation with visible light and measured after 15 sec by DPBF based assay relative to control; format: functional; set-up: scale not given: the % may be the effect or the level left
[14] = Induction of singlet oxygen production in CH3CN assessed as decrease in fluorescence intensity at 450 nm under photoirradiation with visible light and measured after 1 min by DPBF based assay relative to control; format: functional; set-up: scale not given: the % may be the effect or the level left
[15] = Induction of singlet oxygen production in CH3CN assessed as singlet oxygen quantum yield at 450 nm under photoirradiation with visible light and measured after 15 to 60 sec by DPBF based assay; format: functional; conditions: time 15-60 sec
HCT-116 [16] = assay: Induction of ROS generation in human HCT-116 cells at 5 uM incubated for 1 hrs under dark condition by DCFH-DA staining based fluorescence analysis; format: functional, cell-based
[17] = Induction of singlet oxygen production in CH3CN assessed as decrease in fluorescence intensity at 450 nm under photoirradiation with visible light and measured after 30 sec by DPBF based assay relative to control; format: functional; set-up: scale not given: the % may be the effect or the level left
[18] = Cytotoxicity against human HaCaT cells assessed as inhibition of cell growth incubated for 72 hrs under photoirradiation with 6 cool white lamps for 15 mins at 4,28 and 52 hrs after compound addition by MTT assay; format: toxicity, cell-based
[19] = Cytotoxicity against HEK293T cells assessed as inhibition of cell growth incubated for 72 hrs under photoirradiation with 6 cool white lamps for 15 mins at 4,28 and 52 hrs after compound addition by MTT assay; format: toxicity, cell-based, HEK-293T; conditions: human
[20] = Cytotoxicity against human HaCaT cells assessed as inhibition of cell growth incubated for 72 hrs under dark condition by MTT assay; format: toxicity, cell-based
[21] = Cytotoxicity against HEK293T cells assessed as inhibition of cell growth incubated for 72 hrs under dark condition by MTT assay; format: toxicity, cell-based, HEK-293T; conditions: human

SMILES | IC50 (MCF7 [1]) [µM] | IC50 (MCF7 [2]) [µM] | IC50 (HCT-116 [3]) [µM] | IC50 (NCI-H460 [4]) [µM] | IC50 (NCI-H460 [5]) [µM] | IC50 (HCT-116 [6]) [µM] | Activity [7] | Activity [8] [nm] | Activity [9] [M⁻¹ cm⁻¹] | Activity [10] [nm] | other results
CO[B-]1(C)n2c(C)cc(C)c2C(COc2ccccc2COC(C)=O)=C2C(C)=CC(C)=[N+]21 (stereo not given) | 1.18 | 13 | 2.3 | 20 | 2 | 17 | – | – | – | – | –
CC1=C(Br)C(C)=[N+]2C1=C(COc1ccccc1CO)c1c(C)c(Br)c(C)n1[B-]2(C)C | 0.23 | 17 | 0.4 | 69 | 0.6 | 26 | 0.04 | 557 | 42810 | 531 | –
CC(=O)OCc1ccccc1OCC1=C2C(C)=CC(C)=[N+]2[B-](C)(C)n2c(C)cc(C)c21 | 0.2 | 27 | 0.21 | 83 | 0.19 | 33 | 0.28 | 521 | 146706 | 510 | Activity [11]: 21.1%; Activity (HCT-116 [12]): Active; Activity [13]: 4.9%; Activity [14]: 32.3%; Activity [15]: 0.1; Activity (HCT-116 [16]): inactive; Activity [17]: 12.9%
CO[B-]1(C)n2c(C)c(Br)c(C)c2C(COc2ccccc2CO)=C2C(C)=C(Br)C(C)=[N+]21 (stereo not given) | 6 | 27 | 14 | > 100 | 17 | > 100 | – | – | – | – | –
CC1=CC(C)=[N+]2C1=C(C=O)c1c(C)cc(C)n1[B-]2(C)C | 15 | 20 | 40 | > 100 | 61 | 49 | – | – | – | – | –
CC1=CC(C)=[N+]2C1=C(COc1ccccc1CO)c1c(C)cc(C)n1[B-]2(C)C | 0.2 | 14 | 0.15 | 16.1 | 0.13 | 13 | 0.33 | 527 | 87209 | 510 | Activity [11]: 18.9%; Activity (HCT-116 [12]): Active; Activity [13]: 1.1%; Activity [14]: 26.9%; Activity [15]: 0.1; Activity (HCT-116 [16]): inactive; Activity [17]: 8.8%
COc1cccc(COC(C)=O)c1OCC1=C2C(C)=C(Br)C(C)=[N+]2[B-](C)(OC)n2c(C)c(Br)c(C)c21 (stereo not given) | 2 | 15 | 6 | 48 | 16 | 24 | – | – | – | – | –
COc1cccc(CO)c1OCC1=C2C(C)=CC(C)=[N+]2[B-](C)(C)n2c(C)cc(C)c21 | 0.2 | 15 | 0.38 | 16 | 0.24 | 12 | 0.33 | 521 | 109069 | 510 | Activity (HCT-116 [12]): Active; Activity (HCT-116 [16]): inactive
CC(=O)OCC1=C2C(C)=CC(C)=[N+]2[B-](F)(F)n2c(C)cc(C)c21 | – | – | – | – | – | – | 0.99 | 528 | 99848 | 517 | –
COc1cccc(COC(C)=O)c1OCC1=C2C(C)=CC(C)=[N+]2[B-](C)(C)n2c(C)cc(C)c21 | 0.2 | 47 | 0.34 | ≥ 100 | 0.26 | ≥ 100 | 0.27 | 522 | 75178 | 510 | IC50 at 72 h [18]: 0.6 µM; IC50 at 72 h [19]: 1.3 µM; Activity [11]: 14.9%; Activity (HCT-116 [12]): Active; Activity [13]: 1%; IC50 at 72 h [20]: > 100 µM; Activity [14]: 20.2%; Activity [15]: 0.1; Activity (HCT-116 [16]): inactive; Activity [17]: 6.9%; IC50 at 72 h [21]: ≥ 100 µM
CO[B-]1(C)n2c(C)c(I)c(C)c2C(COc2ccccc2COC(C)=O)=C2C(C)=C(I)C(C)=[N+]21 (stereo not given) | 0.7 | 27 | 1.7 | > 100 | 1.3 | > 100 | – | – | – | – | –

More lines, main results first:

IC50 (MCF7 [1]) [µM] | IC50 (MCF7 [2]) [µM] | IC50 (HCT-116 [3]) [µM] | IC50 (NCI-H460 [4]) [µM] | IC50 (NCI-H460 [5]) [µM] | IC50 (HCT-116 [6]) [µM] | Activity [7] | Activity [8] [nm] | Activity [9] [M⁻¹ cm⁻¹] | Activity [10] [nm] | SMILES | other results
0.17 | 63 | 0.18 | ≥ 100 | 0.25 | ≥ 100 | 0.005 | 565 | 37520 | 537 | CC(=O)OCc1ccccc1OCC1=C2C(C)=C(I)C(C)=[N+]2[B-](C)(C)n2c(C)c(I)c(C)c21 | –
0.1 | 12 | 0.15 | 31 | 0.15 | 13 | 0.012 | 560 | 65694 | 535 | COc1cccc(CO)c1OCC1=C2C(C)=C(I)C(C)=[N+]2[B-](C)(C)n2c(C)c(I)c(C)c21 | –
8 | 8 | 30 | 34 | ≤ 50 | 42 | – | – | – | – | CO[B-]1(C)n2c(C)c(I)c(C)c2C(COc2ccccc2CO)=C2C(C)=C(I)C(C)=[N+]21 (stereo not given) | –
0.15 | 11 | 0.192 | 19 | 0.18 | 14 | 0.04 | 555 | 54912 | 530 | COc1cccc(CO)c1OCC1=C2C(C)=C(Br)C(C)=[N+]2[B-](C)(C)n2c(C)c(Br)c(C)c21 | –
0.13 | > 100 | 0.176 | > 100 | 0.22 | > 100 | 0.017 | 545 | 58719 | 535 | COc1cccc(COC(C)=O)c1OCC1=C2C(C)=C(I)C(C)=[N+]2[B-](C)(C)n2c(C)c(I)c(C)c21 | IC50 at 72 h [18]: 0.2 µM; IC50 at 72 h [19]: 0.2 µM; Activity [11]: 100%; Activity [13]: 84.9%; IC50 at 72 h [20]: > 100 µM; Activity [15]: 0.78; Activity [17]: 98.8%; IC50 at 72 h [21]: > 100 µM
0.13 | 27 | 0.13 | 53 | 0.18 | 37 | 0.005 | 560 | 41143 | 537 | CC1=C(I)C(C)=[N+]2C1=C(COc1ccccc1CO)c1c(C)c(I)c(C)n1[B-]2(C)C | –
